Converted amounts (≈) assume the structure as drawn. Like-named read-outs stand apart in the source and are kept apart here.

The subject of one assay is Aspergillus niger. Nature of the assay: MIC, broth two-fold serial dilution test, Aspergillus niger (Anig). In kind it is cell-based. As to conditions: TSB. The text has this:
(§1) The compounds identified with a prime (') were the non-iodo analogues of the invention compounds, i.e., the compounds of formula III or IV. All data are reported in ppm of active ingredient required to control the respective organism. The indication "No In." means that the compound had no inhibitory activity at 500 ppm which was the maximum tested, and so if the "No In." compound were active, the minimum inhibitory concentration would be above 500 ppm. The comparative tests were not run side-by-side, but were run on different days using the same methods. […] A minimum inhibitory concentration (MIC) value is obtained using a broth, two-fold serial dilution test performed as follows: […] A volume of the stock solution is dispensed into culture media to give an initial starting test concentration of the compound of 500 ppm or 250 ppm. When the test is ready to be done, each vessel in the dilution series, except the first vessel, contains an equal volume of compound free broth. The first vessel contains twice the volume of broth with the starting concentration of test compound. One half of the broth from the first vessel is transferred to the second vessel. After being mixed, one half the resulting volume is removed from the second vessel and transferred to the third vessel. […] Each vessel is then inoculated with a cell suspension of the appropriate test organism. Bacteria are grown in broth and fungi on agar […] is grown in cooling tower media for a time and at a temperature appropriate to the species being tested. At the end of the growth period, the broth is vortexed to disperse the cells. In the case of fungi, the spores are harvested by pipetting water onto the slant and dislodging the spores with a sterile loop. The cell/spore suspension is standardized by controlling incubation time, temperature, and the volume of the diluent. The suspension is then used to inoculate the vessels containing the broth compound. The vessels are then incubated at the appropriate temperature. After the incubation, the vessels are examined for growth/no growth. The MIC is defined as the lowest concentration of compound that results in complete inhibition of growth of the test organism. INDUSTRIAL FUNGI: Aspergillus niger (A.n); Aureobasidium pullulans (A.p)

The subject of another assay is Phytophthora infestans. The assay is described as follows: whole plant or invertebrate. In kind it is in vivo. As to conditions: for pest or weed control at 200 ppm / pest or weed control at 50 ppm: Phytophthora infestans, in Solanum lycopersicum, 96 h; for pest or weed control at 50 ppm: read-out: % Control TLB, secondary greenhouse test (Table 5), 50 ppm; for percent disease control TLB: advanced greenhouse test (Table 6), 0.25 kg a.i./ha.

For a further assay, the system named is Piricularia oryzae. The assay is described as follows: whole plant or invertebrate. In kind it is in vivo. The following applies: Pyricularia oryzae, read-out: % Control RB.
In assay [1] the test system is Pseudoperonospora cubensis. The assay is described as follows: whole plant or invertebrate. In kind it is in vivo. As to conditions: for pest or weed control at 200 ppm: Pseudoperonospora cubensis, in Cucumis sativus, 168 h, read-out: % Control CDM; for percent disease control CDM: in vivo.
The subject of a further assay is Escherichia coli. The assay is described as follows: MIC, broth two-fold serial dilution test, Escherichia coli (Ecol). It is filed as cell-based.
Source text: as §1, with “BACTERIA: Pseudomonas fluorescens (Ps.fl), gram negative; Pseudomonas aerugenosa (Ps.ae), gram negative; Escherichia coli (E.c), gram negative; and Staphylococcus aureus (S.a), gram positive.” for “INDUSTRIAL FUNGI: Aspergillus niger (A.n); Aureobasidium pullulans (A.p)”

The next assay has as its system Staphylococcus aureus. The assay is described as follows: MIC, broth two-fold serial dilution test, Staphylococcus aureus (Saur). It is filed as cell-based.
Source text: as §1, with “BACTERIA: Pseudomonas fluorescens (Ps.fl), gram negative; Pseudomonas aerugenosa (Ps.ae), gram negative; Escherichia coli (E.c), gram negative; and Staphylococcus aureus (S.a), gram positive.” for “INDUSTRIAL FUNGI: Aspergillus niger (A.n); Aureobasidium pullulans (A.p)”

The test system of assay [2] is Erysiphe graminis (f. sp. tritici). The assay is described as follows: whole plant or invertebrate. In kind it is in vivo. As to conditions: for pest or weed control at 50 ppm / pest or weed control at 200 ppm: Blumeria graminis, read-out: % Control WPM; for percent disease control WPM: in vivo.
A further assay relates to Pseudomonas aerugenosa. The assay is described as follows: MIC, broth two-fold serial dilution test, Pseudomonas aerugenosa (Psae). It is filed as cell-based.
Source text: as §1, with “BACTERIA: Pseudomonas fluorescens (Ps.fl), gram negative; Pseudomonas aerugenosa (Ps.ae), gram negative; Escherichia coli (E.c), gram negative; and Staphylococcus aureus (S.a), gram positive.” for “INDUSTRIAL FUNGI: Aspergillus niger (A.n); Aureobasidium pullulans (A.p)”

Assay [3] deals with Puccinia recondita (f. sp. tritici Races PKB and PLD). The assay is described as follows: whole plant or invertebrate. The following applies: for pest or weed control at 50 ppm / pest or weed control at 200 ppm: Puccinia recondita, 240 h, read-out: % Control WLR. In kind it is in vivo.
Assay [4] has as its system Pellicularia filamentosa (f. sp. sasiki). The assay is described as follows: whole plant or invertebrate. It is filed as in vivo. As to conditions: 120 h; read-out: % Control RSB.
The test system of the next assay is TLB, CDM, WLR, SNW, WPM. The following applies: in vivo.
The test system of a further assay is Septoria nodorum. The following applies: in vivo.
Where [5] appears, read: read-out: % Control TLB, greenhouse test (Table 4), 200 ppm.
Where [6] appears, read: read-out: % Control TLB, secondary greenhouse test (Table 5), 200 ppm.

The MIC is the least concentration at which growth counts as inhibited. Read a low MIC as a more susceptible organism. As to `CC1C(=O)N(c2cc(Cl)cc(Cl)c2)C(=O)N1CC#CI` (stereo not shown) [Compound 1], the MIC with Aspergillus niger was 0.5 µg/mL (≈ 1.18 µM); with Escherichia coli (M9G), over 500 µg/mL; in the assay on Escherichia coli (TSB), over 500 µg/mL; against Staphylococcus aureus (M9G) it was over 500 µg/mL; in the assay on Staphylococcus aureus (TSB), over 500 µg/mL; with Pseudomonas aerugenosa (M9G) it was over 500 µg/mL. The MIC with Pseudomonas aerugenosa (TSB) is over 500 µg/mL. Further, the pest or weed control at 200 ppm was found to be 0% in the assay with Phytophthora infestans (setting [5]); 95% with Phytophthora infestans (setting [6]); 50% in the assay on Piricularia oryzae; 90% in assay [1]; 80% in assay [3]; 75% in [4]. Besides, the pest or weed control at 50 ppm with Phytophthora infestans was 75%; in the assay on Piricularia oryzae, 50%; in [2], 0%; in assay [3], 50%; in assay [4], 50%.
Consider `CC1C(=O)N(c2ccc(Cl)cc2)C(=O)N1CC#CI` (stereo not shown) [Compound 2, 1-(3-iodo-2-propynyl)-3-(4-chlorophenyl)-5-methylhydantoin], for which the “percent disease control Average” value in the assay on TLB, CDM, WLR, SNW, WPM came out at 72.4%. For the same compound, the MIC in the assay on Aspergillus niger was 2 µg/mL (≈ 5.15 µM); with Escherichia coli (M9G), over 500 µg/mL; against Escherichia coli (TSB), 500 µg/mL (≈ 1290 µM); against Staphylococcus aureus (M9G), over 500 µg/mL; in the assay with Staphylococcus aureus (TSB) it was over 500 µg/mL; with Pseudomonas aerugenosa (M9G) it was over 500 µg/mL. Besides, in the assay on Pseudomonas aerugenosa (TSB), the MIC was over 500 µg/mL. Also, the pest or weed control at 200 ppm is 0% in the assay with Phytophthora infestans (setting [5]); 75% with Phytophthora infestans (setting [6]); 75% in the assay on Piricularia oryzae; 0% in [1]; 75% in [2]; 85% in assay [3]. Besides, the pest or weed control at 200 ppm in assay [4] was found to be 0%. Moreover, the pest or weed control at 50 ppm with Phytophthora infestans was 50%; in the assay with Piricularia oryzae, 50%; in [2], 50%; in assay [3], 80%; in assay [4], 0%. In the assay on Phytophthora infestans, the “percent disease control TLB” value was determined as 38.0%. Further, the “percent disease control CDM” value in assay [1] was determined as 98.0%. Besides, the “percent disease control WPM” value in [2] is on record as 53.0%. For the same compound, the “% Control WLR” value in [3] (in vivo) turned out to be 90%. Moreover, the “percent disease control WLR” value in assay [3] (in vivo) stood at 83.0%. In addition, the “percent disease control SNW” value with Septoria nodorum came to 90.0%.
For the compound `CC1(C)C(=O)N(c2cc(Cl)cc(Cl)c2)C(=O)N1CC#CI` [Compound 6, 1-(3-iodo-2-propynyl)-3-(3,5-dichlorophenyl)-5,5-dimethylhydantoin], the “percent disease control Average” value in the assay on TLB, CDM, WLR, SNW, WPM came out at 77.6%. The MIC with Aspergillus niger was 1 µg/mL (≈ 2.29 µM); against Escherichia coli (M9G), over 500 µg/mL; in the assay with Escherichia coli (TSB), over 500 µg/mL; in the assay with Staphylococcus aureus (M9G), 8 µg/mL (≈ 18.3 µM); in the assay with Staphylococcus aureus (TSB), 2 µg/mL (≈ 4.58 µM); against Pseudomonas aerugenosa (M9G), over 500 µg/mL. The compound further returned an MIC against Pseudomonas aerugenosa (TSB) of over 500 µg/mL. Besides, the “percent disease control TLB” value in the assay on Phytophthora infestans is listed as 70.0%. In addition, the “percent disease control CDM” value in [1] is 100.0%. Further, the “percent disease control WPM” value in [2] is listed as 68.0%. Moreover, the “percent disease control WLR” value in [3] (in vivo) amounted to 82.0%. For the same compound, the “percent disease control SNW” value with Septoria nodorum was 68.0%.
In the case of `O=C1CN(CC#CI)C(=O)N1c1cc(Cl)cc(Cl)c1` [Compound 7, 1-(3-iodo-2-propynyl)-3-(3,5-dichlorophenyl)hydantoin], the MIC against Aspergillus niger is 1 µg/mL (≈ 2.44 µM); in the assay with Escherichia coli (M9G), over 500 µg/mL; with Escherichia coli (TSB), over 500 µg/mL; with Staphylococcus aureus (M9G) it was 16 µg/mL (≈ 39.1 µM); against Staphylococcus aureus (TSB), 8 µg/mL (≈ 19.6 µM); with Pseudomonas aerugenosa (M9G), over 500 µg/mL. This compound also displayed an MIC with Pseudomonas aerugenosa (TSB) of over 500 µg/mL. In addition, the pest or weed control at 200 ppm came to 90% in the assay on Phytophthora infestans (setting [5]); 90% in the assay on Phytophthora infestans (setting [6]); 50% in the assay with Piricularia oryzae; 50% in assay [1]; 50% in assay [4]. Moreover, the pest or weed control at 50 ppm in the assay with Phytophthora infestans turned out to be 50%; with Piricularia oryzae, 50%; in assay [2], 0%; in assay [3], 50%.
For `CC1(C)C(=O)N(Cc2ccccc2)C(=O)N1CC#CI` [Compound 8], the MIC with Aspergillus niger was under 0.25 µg/mL; against Escherichia coli (M9G) it was 64 µg/mL (≈ 167 µM); in the assay with Escherichia coli (TSB), 125 µg/mL (≈ 327 µM); in the assay on Staphylococcus aureus (M9G), 16 µg/mL (≈ 41.9 µM); against Staphylococcus aureus (TSB) it was 16 µg/mL (≈ 41.9 µM); against Pseudomonas aerugenosa (M9G), 32 µg/mL (≈ 83.7 µM). The MIC against Pseudomonas aerugenosa (TSB) stood at 125 µg/mL (≈ 327 µM). The pest or weed control at 50 ppm is 50% with Phytophthora infestans; 50% with Piricularia oryzae; 0% in [2]; 80% in [3]; 50% in [4]. For the same compound, the pest or weed control at 200 ppm is 50% in the assay on Phytophthora infestans (setting [6]); 50% with Piricularia oryzae; 50% in assay [2]; 90% in assay [3]; 75% in assay [4].
On to `CC(C)(C#CI)N1CC(=O)N(c2cc(Cl)cc(Cl)c2)C1=O` [Compound 13, 1-(1,1-dimethyl-3-iodo-2-propynyl)-3-(3,5-dichlorophenyl)hydantoin], for which the minimal inhibitory concentration (MIC) in the assay with Aspergillus niger was 8 µg/mL (≈ 18.3 µM); in the assay with Escherichia coli (M9G) it was over 500 µg/mL; in the assay with Escherichia coli (TSB), over 500 µg/mL; against Staphylococcus aureus (M9G), over 500 µg/mL; against Staphylococcus aureus (TSB), over 500 µg/mL; in the assay on Pseudomonas aerugenosa (M9G), over 500 µg/mL. The MIC against Pseudomonas aerugenosa (TSB) is over 500 µg/mL. The pest or weed control at 200 ppm with Phytophthora infestans (setting [5]) came to 70%; with Phytophthora infestans (setting [6]) it was 50%; in the assay on Piricularia oryzae, 50%; in assay [1], 80%; in assay [2], 75%; in assay [3], 90%. Moreover, the pest or weed control at 200 ppm in [4] was determined as 75%. Besides, the pest or weed control at 50 ppm with Phytophthora infestans stood at 0%; with Piricularia oryzae it was 50%; in assay [2], 50%; in assay [3], 50%; in assay [4], 50%.

For the origin of these results see patent US5346913A, “N-iodopropargyl hydantoin compounds, compositions, preparation, and use as antimicrobial agents” (Rohm and Haas Company, priority 1992, dated 1994).
